Patent US11226337B2, “Chemoproteomic profiling of protein electrophilic and oxidative post-translational modifications” (Zenagem, LLC, priority 2017, dated 2022)

Tests used:
[1] = biological target: T1, LEPRE1 Prolyl 3hydroxylase 1 (Q32P28) (Homo sapiens, UniProt Q32P28); assay: SILAC RP-ABPP; type: cell-based; conditions: SILAC H/L, MDA-MB-231
T1 construct: In Situ Labelling of Cells with Hydrazine Probes for MS Experiments; endogenous in cells
T1 sequence (Q32P28 23-736): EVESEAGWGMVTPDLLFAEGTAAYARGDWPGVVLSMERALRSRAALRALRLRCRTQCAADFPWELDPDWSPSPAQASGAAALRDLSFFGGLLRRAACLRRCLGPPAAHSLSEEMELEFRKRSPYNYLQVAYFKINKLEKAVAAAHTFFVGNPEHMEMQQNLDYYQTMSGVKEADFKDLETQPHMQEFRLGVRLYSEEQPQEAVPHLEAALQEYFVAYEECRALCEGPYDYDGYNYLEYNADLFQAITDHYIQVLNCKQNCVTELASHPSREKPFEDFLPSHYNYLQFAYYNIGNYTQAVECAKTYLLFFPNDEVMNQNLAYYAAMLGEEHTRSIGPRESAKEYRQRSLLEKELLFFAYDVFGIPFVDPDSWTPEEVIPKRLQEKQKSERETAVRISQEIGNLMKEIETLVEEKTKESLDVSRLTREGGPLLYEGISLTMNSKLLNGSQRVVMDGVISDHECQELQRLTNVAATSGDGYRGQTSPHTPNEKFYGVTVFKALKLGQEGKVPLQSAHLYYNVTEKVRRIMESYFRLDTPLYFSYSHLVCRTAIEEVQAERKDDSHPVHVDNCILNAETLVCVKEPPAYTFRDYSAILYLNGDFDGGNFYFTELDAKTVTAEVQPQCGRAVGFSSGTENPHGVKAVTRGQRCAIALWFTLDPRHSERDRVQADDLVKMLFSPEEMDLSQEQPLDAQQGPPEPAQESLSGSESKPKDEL
Procedure: (§1) For MS-based experiments, labelling was performed in a similar manner as described above in Example 2, maintaining the same concentrations of probes. Modifications to this protocol included using isotopically ‘light’ and ‘heavy’ SILAC cells that were also grown to near complete confluence prior to treatment. Isotopically light cells were treated with the non-clickable hydrazine probe (at the same concentration as the probe in ‘enrichment’ experiments) or the probe in the presence of 10-fold excess non-clickable hydrazine probe as a competitor (in ‘competition’ experiments). Isotopically heavy cells were treated with the probe for both types of experiments. These treatments were performed in non-SILAC media. Following treatments, cells were washed with cold PBS to remove the probe-containing media, harvested by scraping, collected by centrifugation (1,400 g, 3 min, 4° C.), washed again by resuspension in cold PBS and frozen as pellets at −80° C. until use.
(§2) The fractionated equimolar mixture of heavy and light soluble proteomes (1-1.5 mg) was diluted to 1 mL in PBS. Click reactions were scaled accordingly (except for biotin-azide) to maintain final concentrations of 0.1 mM TBTA, 1 mM CuSO4, 100 μM biotin-azide (10 mM in DMSO) and 1 mM TCEP. The mixture was vortexed and placed on a rotator at ambient temperature for 1 hour. Sequential addition of and mixture with pre-chilled methanol (MeOH, 2 mL), chloroform (CHCl3, 0.5 mL) and PBS (1 mL) on ice quenched the reaction. The precipitated proteome was centrifuged (5,000 g, 10 min, 4° C.) to fractionate the protein interphase from the organic and aqueous solvent layers. The protein pellet was washed with cold 1:1 MeOH:CHCl3 (3×1 mL), mildly sonicated in cold 4:1 MeOH:CHCl3 (2.5 mL) and pelleted once more by centrifugation (5,000 g, 10 min, 4° C.) to ensure click reagents were efficiently removed.
(§3) Heavy and light parent ion chromatograms associated with successfully identified peptides were extracted and compared using CIMAGE software as previously described^69. At least one ion of a co-eluting heavy-light pair must be accurately identified from a fragmentation event that occurred within the retention time window (±10 min) of parent ion elution. To ensure that the correct pair of peaks is quantified, chromatograms are extracted within a 10 ppm error tolerance of the predicted m/z, the signal-to-noise ratio must be >2.5 and the ‘co-elution correlation score’ and ‘envelope correlation score’ must have R^2 values ≥0.8. In addition, peptides detected as ‘singletons,’ where only the heavy ion of a peptide pair was identified, but for which passed all other filtering parameters, are given a default assigned ratio of ‘20,’ which is defined as any measured ratio that is ≥20.
(§4) To further eliminate false positives and any stochastic variability in the data, protein ratios were then determined by the median peptide ratio derived from three or more unique quantified peptides. Protein ratios that complied with these criteria from a single experiment were then averaged with ratios acquired from ≥3 replicates to provide final values for each type of experiment in both cell lines with both probes. […] Most importantly, there are no robustly measured ratios for proteins identified as probe 1 targets that had measured ratios of ˜1 with probe 2. Probe targets in HEK293T and MDA-MB-231 cells represent data combined from ≥3 independent biological replicates with each cell type performed with several independent batches of synthesized probes over a period of almost two years. […]

[2] = biological target: T2, PLOD3 Procollagenlysine, 2oxoglutarate (O60568) (Homo sapiens, UniProt O60568); assay: SILAC RP-ABPP; type: cell-based; conditions: SILAC H/L
T2 construct: In Situ Labelling of Cells with Hydrazine Probes for MS Experiments; endogenous in cells; host or cells: HEK293T and MDA-MB-231
T2 sequence (O60568 25-738): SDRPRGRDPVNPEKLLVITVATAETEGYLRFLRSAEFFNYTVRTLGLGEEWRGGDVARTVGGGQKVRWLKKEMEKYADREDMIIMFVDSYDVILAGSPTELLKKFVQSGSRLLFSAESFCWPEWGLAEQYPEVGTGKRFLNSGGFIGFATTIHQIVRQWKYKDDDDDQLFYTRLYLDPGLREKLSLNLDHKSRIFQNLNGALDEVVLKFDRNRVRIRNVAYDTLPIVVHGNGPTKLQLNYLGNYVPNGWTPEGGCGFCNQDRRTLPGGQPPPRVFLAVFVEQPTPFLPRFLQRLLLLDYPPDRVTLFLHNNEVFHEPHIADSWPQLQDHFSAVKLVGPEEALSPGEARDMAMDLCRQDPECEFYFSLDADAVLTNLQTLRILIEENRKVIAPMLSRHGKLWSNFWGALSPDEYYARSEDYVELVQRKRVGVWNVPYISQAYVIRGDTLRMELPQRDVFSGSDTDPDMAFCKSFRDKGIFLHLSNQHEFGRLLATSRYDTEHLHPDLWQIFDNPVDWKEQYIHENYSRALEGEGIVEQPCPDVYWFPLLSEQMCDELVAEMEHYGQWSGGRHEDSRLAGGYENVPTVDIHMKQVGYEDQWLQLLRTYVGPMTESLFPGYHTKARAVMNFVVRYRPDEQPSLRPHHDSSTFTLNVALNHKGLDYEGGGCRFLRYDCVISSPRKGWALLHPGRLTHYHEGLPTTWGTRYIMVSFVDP
Procedure: as §1, §2, §3, §4

Row | enrichment ratioavg ([1]; probe 2 1 mM 0.5 h vs probe 4) | competition ratioavg ([1]; probe 2 vs probe 2+10x probe 4) | enrichment ratioavg ([2]; probe 2 1 mM 0.5 h vs probe 4, HEK293T) | competition ratioavg ([2]; probe 2 vs probe 2+10x probe 4, HEK293T) | Compound | enrichment ratioavg ([1]; probe 1 3 mM 0.5 h vs probe 3) | competition ratioavg ([1]; probe 1 vs probe 1+10x probe 3) | enrichment ratioavg ([2]; probe 1 3 mM 0.5 h vs probe 3, MDA-MB-231) | competition ratioavg ([2]; probe 1 vs probe 1+10x probe 3, MDA-MB-231)
1 | 8 | 2 | 20 | 6 | C#CCCNC(=O)c1ccc(NN)cc1.Cl [probe 2, N-(but-3-yn-1-yl)-4-hydrazinylbenzamide hydrochloride] |  |  |  | 
2 |  |  |  |  | C#CCNN.Cl [probe 1, prop-2-yn-1-ylhydrazine hydrochloride] | 8 | 3 | 14 | 2
